Laboratory results reported in PubChem BioAssay AID306 (DTP/NCI, 2004).
“And” between values parts separate entries of the source, which are not always exact repeats. Equal entries are not always repeated. Toxic doses and inconclusive results are not listed.

Tested on: BDF1 mice, L1210 Methyl-GAG-resistant leukemia, survival T/C
Experiment: NCI In Vivo Anticancer Drug Screen. Data for tumor model L1210 Leukemia resistant to Methyl-GAG; NSC 32946 (subcutaneous) in B6D2F1 (BDF1) mice
Conditions: endpoint: mean survival time, higher = longer survival
Experimental: The antitumor activity of compounds was measured in mice bearing transplantable tumors. Survival or tumor size were measured and the results are expressed as the measurement made in the treated group (T) divided by the measurement made in the vehicle treated control group (C). The tumor model used in this assay is L1210 Leukemia resistant to Methyl-GAG; NSC 32946 (subcutaneous) in B6D2F1 (BDF1) mice

[1] = dose: 3.1 mg/kg/injection, schedule: Q01DX Z (ip), vehicle: carboxymethylcellulose (CMC)
[2] = dose: 6.25 mg/kg/injection, schedule: Q01DX Z (ip), vehicle: carboxymethylcellulose (CMC)
[3] = dose: 12.5 mg/kg/injection, schedule: Q01DX Z (ip), vehicle: carboxymethylcellulose (CMC)
[4] = dose: 25.0 mg/kg/injection, schedule: Q01DX Z (ip), vehicle: carboxymethylcellulose (CMC)
[5] = dose: 5.0 mg/kg/injection, schedule: Q01DX Z (ip), vehicle: carboxymethylcellulose (CMC)
[6] = dose: 10.0 mg/kg/injection, schedule: Q01DX Z (ip), vehicle: carboxymethylcellulose (CMC)
[7] = dose: 15.0 mg/kg/injection, schedule: Q01DX Z (ip), vehicle: carboxymethylcellulose (CMC)
[8] = dose: 30.0 mg/kg/injection, schedule: Q01DX Z (ip), vehicle: carboxymethylcellulose (CMC)
[9] = dose: 60.0 mg/kg/injection, schedule: Q01DX Z (ip), vehicle: carboxymethylcellulose (CMC)
[10] = dose: 50.0 mg/kg/injection, schedule: Q01DX Z (ip), vehicle: carboxymethylcellulose (CMC)
[11] = dose: 100.0 mg/kg/injection, schedule: Q01DX Z (ip), vehicle: carboxymethylcellulose (CMC)
[12] = dose: 200.0 mg/kg/injection, schedule: Q01DX Z (ip), vehicle: carboxymethylcellulose (CMC)
[13] = dose: 2.5 mg/kg/injection, schedule: Q01DX Z (ip), vehicle: carboxymethylcellulose (CMC)
[14] = dose: 20.0 mg/kg/injection, schedule: Q01DX Z (ip), vehicle: carboxymethylcellulose (CMC)
[15] = dose: 62.5 mg/kg/injection, schedule: Q01DX Z (sc), vehicle: steriod suspending solution
[16] = dose: 125.0 mg/kg/injection, schedule: Q01DX Z (sc), vehicle: steriod suspending solution
[17] = dose: 31.0 mg/kg/injection, schedule: Q01DX Z (ip), vehicle: carboxymethylcellulose (CMC)
[18] = dose: 125.0 mg/kg/injection, schedule: Q01DX Z (ip), vehicle: carboxymethylcellulose (CMC)
[19] = dose: 500.0 mg/kg/injection, schedule: Q01DX Z (ip), vehicle: carboxymethylcellulose (CMC)
[20] = dose: 1000.0 mg/kg/injection, schedule: Q01DX Z (ip), vehicle: carboxymethylcellulose (CMC)
[21] = dose: 4.0 mg/kg/injection, schedule: Q01DX Z (ip), vehicle: carboxymethylcellulose (CMC)
[22] = dose: 8.0 mg/kg/injection, schedule: Q01DX Z (ip), vehicle: carboxymethylcellulose (CMC)
[23] = dose: 62.5 mg/kg/injection, schedule: Q01DX Z (ip), vehicle: carboxymethylcellulose (CMC)

`CCCCn1cnc2c(=S)nc[nH]c21` was tested, and the T/C [1] was 91 % of control, the T/C [2] was 113 % of control and the T/C [3] was 97 % of control. The T/C [4] was 103 % of control.
With `N#[N+]c1cnc([O-])[nH]c1=O` the T/C [5] was 88 % of control and the T/C [6] was 88 % of control.
`N[C@@H](Cc1ccc(N(CCCl)CCCl)cc1)C(=O)O` was tested, and the T/C (dose: 1.25 mg/kg/injection, schedule: Q01DX Z (ip), vehicle: saline) was 92 % of control, the T/C (dose: 2.5 mg/kg/injection, schedule: Q01DX Z (ip), vehicle: saline) was 106 % of control and the T/C (dose: 5.0 mg/kg/injection, schedule: Q01DX Z (ip), vehicle: saline) was 123 % of control. For the same molecule, the T/C (dose: 10.0 mg/kg/injection, schedule: Q01DX Z (ip), vehicle: saline) was 92 % of control.
`Cc1cc(N(CCCl)CCCl)ccc1N=Nc1ccccc1C(=O)O` was tested, and the T/C [7] was 96 % of control, the T/C [8] was 99 % of control and the T/C [9] was 96 % of control.
For `CSc1ncnc2c1ncn2C1OC(CO)C(O)C1O` (configuration not stated), the T/C [2] was 102 % of control, the T/C [3] was 107 % of control and the T/C [10] was 97 % of control.
In the case of `CSc1ncnc2nc[nH]c12`, the T/C [3] is reported as 106 % of control, the T/C [4] is reported as 111 % of control and the T/C [10] is reported as 106 % of control. For the same molecule, the T/C [11] was 115 % of control and the T/C [12] was 97 % of control.
`CCN(CC)c1ccc2cc3ccc(=[N+](CC)CC)cc-3oc2c1` was tested, and the T/C (dose: 0.08 mg/kg/injection, schedule: Q01DX Z (ip), vehicle: carboxymethylcellulose (CMC)) was 117 % of control, the T/C (dose: 0.16 mg/kg/injection, schedule: Q01DX Z (ip), vehicle: carboxymethylcellulose (CMC)) was 95 % of control and the T/C (dose: 0.31 mg/kg/injection, schedule: Q01DX Z (ip), vehicle: carboxymethylcellulose (CMC)) was 91 % of control. For the same molecule, the T/C (dose: 0.32 mg/kg/injection, schedule: Q01DX Z (ip), vehicle: carboxymethylcellulose (CMC)) was 103 % of control, the T/C (dose: 0.63 mg/kg/injection, schedule: Q01DX Z (ip), vehicle: carboxymethylcellulose (CMC)) was 91 % of control and the T/C (dose: 1.25 mg/kg/injection, schedule: Q01DX Z (ip), vehicle: carboxymethylcellulose (CMC)) was 87 % of control. For the same molecule, the T/C [13] was 91 % of control and the T/C [5] was 95 % of control.
With `C[N+](C)(C)c1ncnc2nc[nH]c12` the T/C [3] was 101 % of control, the T/C [4] was 103 % of control and the T/C [10] was 101 % of control and 112 % of control. The T/C [11] was 94 % of control and 117 % of control and the T/C [12] was 102 % of control.
For `CC(CCC(C)OS(C)(=O)=O)OS(C)(=O)=O` (configuration not stated), the T/C [5] was 90 % of control, the T/C [6] was 87 % of control and the T/C [14] was 95 % of control.
With `Cn1c(N)nc2nc[nH]c2c1=S` the T/C (dose: 1.6 mg/kg/injection, schedule: Q01DX Z (ip), vehicle: carboxymethylcellulose (CMC)) was 98 % of control, the T/C [1] was 100 % of control and 104 % of control and the T/C [2] was 97 % of control and 102 % of control. For the same molecule, the T/C [3] was 93 % of control and 98 % of control and 102 % of control, the T/C [4] was 102 % of control and the T/C [10] was 100 % of control and 111 % of control. For the same molecule, the T/C [11] was 101 % of control and the T/C [12] was 97 % of control.
In the case of `C[C@]12C=CC(=O)C=C1CC[C@@H]1[C@@H]2[C@@H](O)C[C@@]2(C)[C@H]1CC[C@]2(O)C(=O)CO`, the T/C [15] is reported as 104 % of control, the T/C [16] is reported as 104 % of control and 124 % of control and the T/C (dose: 250.0 mg/kg/injection, schedule: Q01DX Z (sc), vehicle: steriod suspending solution) is reported as 94 % of control.
`CC1CCOS(=O)O1` (configuration not stated) was tested, and the T/C [13] was 95 % of control, the T/C [5] was 101 % of control and the T/C [6] was 97 % of control. The T/C [14] was 97 % of control, the T/C (dose: 40.0 mg/kg/injection, schedule: Q01DX Z (ip), vehicle: carboxymethylcellulose (CMC)) was 95 % of control and the T/C (dose: 80.0 mg/kg/injection, schedule: Q01DX Z (ip), vehicle: carboxymethylcellulose (CMC)) was 92 % of control.
With `O=c1[nH]c(=O)n(C2CC(O)C(CO)O2)cc1Br` (configuration not stated) the T/C [17] was 95 % of control, the T/C (dose: 63.0 mg/kg/injection, schedule: Q01DX Z (ip), vehicle: carboxymethylcellulose (CMC)) was 92 % of control and the T/C [18] was 113 % of control. For the same molecule, the T/C [19] was 118 % of control and the T/C [20] was 120 % of control.
`C[C@H]1C(=O)O[C@@H]2CCN3CC=C(COC(=O)[C@](C)(O)[C@@]1(C)O)[C@H]23` was tested, and the T/C (dose: 1.88 mg/kg/injection, schedule: Q01DX Z (ip), vehicle: carboxymethylcellulose (CMC)) was 94 % of control, the T/C (dose: 3.75 mg/kg/injection, schedule: Q01DX Z (ip), vehicle: carboxymethylcellulose (CMC)) was 96 % of control and the T/C (dose: 7.5 mg/kg/injection, schedule: Q01DX Z (ip), vehicle: carboxymethylcellulose (CMC)) was 92 % of control. The T/C [7] was 92 % of control and 99 % of control, the T/C [8] was 105 % of control and the T/C [9] was 106 % of control. For the same molecule, the T/C (dose: 120.0 mg/kg/injection, schedule: Q01DX Z (ip), vehicle: carboxymethylcellulose (CMC)) was 113 % of control.
For `O=c1cnn(C2OC(CO)C(O)C2O)c(=O)[nH]1` (configuration not stated), the T/C (dose: 8.0 mg/kg/injection, schedule: Q01DX Z (ip), vehicle: water) was 112 % of control, the T/C (dose: 16.0 mg/kg/injection, schedule: Q01DX Z (ip), vehicle: water) was 122 % of control and the T/C (dose: 1000.0 mg/kg/injection, schedule: Q01DX Z (ip), vehicle: water) was 110 % of control.
`COC12C(COC(N)=O)C3=C(C(=O)C(C)=C(N)C3=O)N1CC1C2N1C` (configuration not stated) was tested, and the T/C [13] was 96 % of control, the T/C [5] was 103 % of control and the T/C [6] was 122 % of control. For the same molecule, the T/C [14] was 88 % of control.
With `CCCCNc1ncnc2c1cnn2C` the T/C [21] was 106 % of control, the T/C [22] was 106 % of control and the T/C (dose: 8.8 mg/kg/injection, schedule: Q01DX Z (ip), vehicle: carboxymethylcellulose (CMC)) was 102 % of control. For the same molecule, the T/C (dose: 15.6 mg/kg/injection, schedule: Q01DX Z (ip), vehicle: carboxymethylcellulose (CMC)) was 110 % of control, the T/C [17] was 112 % of control and the T/C (dose: 31.2 mg/kg/injection, schedule: Q01DX Z (ip), vehicle: carboxymethylcellulose (CMC)) was 107 % of control. For the same molecule, the T/C [23] was 100 % of control and the T/C [18] was 98 % of control.
With `O=P1(N(CCCl)CCCl)NCCCO1` (configuration not stated) the T/C (dose: 6.25 mg/kg/injection, schedule: Q01DX Z (ip), vehicle: saline) was 93 % of control, the T/C (dose: 12.5 mg/kg/injection, schedule: Q01DX Z (ip), vehicle: saline) was 122 % of control and 123 % of control and the T/C (dose: 25.0 mg/kg/injection, schedule: Q01DX Z (ip), vehicle: saline) was 254 % of control and 151 % of control. For the same molecule, the T/C (dose: 50.0 mg/kg/injection, schedule: Q01DX Z (ip), vehicle: saline) was 257 % of control and 98 % of control and the T/C (dose: 100.0 mg/kg/injection, schedule: Q01DX Z (ip), vehicle: saline) was 90 % of control and 98 % of control.
In the case of `C[C@]12CCC(=O)C=C1CC[C@@H]1[C@@H]2CC[C@@]2(C)[C@H]1CC[C@]2(C)O`, the T/C (dose: 16.0 mg/kg/injection, schedule: Q01DX Z (sc), vehicle: steriod suspending solution) is reported as 97 % of control, the T/C (dose: 32.0 mg/kg/injection, schedule: Q01DX Z (sc), vehicle: steriod suspending solution) is reported as 105 % of control and the T/C [15] is reported as 89 % of control. For the same molecule, the T/C (dose: 63.0 mg/kg/injection, schedule: Q01DX Z (sc), vehicle: steriod suspending solution) was 97 % of control and the T/C [16] was 95 % of control and 101 % of control.
In the case of `OCC1OC(n2cnc3c(=S)nc[nH]c32)C(O)C1O` (configuration not stated), the T/C (dose: 2.0 mg/kg/injection, schedule: Q01DX Z (ip), vehicle: carboxymethylcellulose (CMC)) is reported as 100 % of control, the T/C [21] is reported as 100 % of control and the T/C [22] is reported as 107 % of control. For the same molecule, the T/C (dose: 16.0 mg/kg/injection, schedule: Q01DX Z (ip), vehicle: carboxymethylcellulose (CMC)) was 115 % of control, the T/C [17] was 120 % of control and the T/C [19] was 93 % of control.
In the case of `O=c1cn[nH]c(=O)[nH]1`, the T/C [23] is reported as 96 % of control, the T/C [18] is reported as 106 % of control and the T/C (dose: 250.0 mg/kg/injection, schedule: Q01DX Z (ip), vehicle: carboxymethylcellulose (CMC)) is reported as 116 % of control. The T/C [19] was 114 % of control and the T/C [20] was 112 % of control.
